# Where two headings read alike, the source gives them in different places.
# Columns and labels:
# MIA-PaCa-2 = test: Cell viability (MTT) assay, 24-h IC50, MIA-PaCa-2; assay type: cell-based, human
# HT29 = test: Cell viability (MTT) assay, 24-h IC50, HT29; assay type: cell-based, human
# SW480 = test: Cell viability (MTT) assay, 24-h IC50, SW480; assay type: cell-based, human
# MCF-7 = test: Cell viability (MTT) assay, 24-h IC50, MCF-7; assay type: cell-based, human
# MDA-MB231 = test: Cell viability (MTT) assay, 24-h IC50, MDA-MB231; assay type: cell-based, human
# BxPC-3 = test: Cell viability (MTT) assay, 24-h IC50, BxPC-3
# Protocol: Cells were incubated at 37° C. in 5% CO2. Cells were seeded at 5.5×10^4 cells/cm^2, allowed to attach overnight, and the following morning cells were treated with each of the test compounds.
# Cell viability assay: We used an assay based on the reduction of 3-(4,5-dimethylthiazol-2-yl)-2,5-diphenyltetrazolium bromide dye (MTT), which was determined according to the manufacture's protocol (Promega, Madison, Wis., USA).
# [1] = system: MDA-MB 231 human breast cancer cells; test: Annexin V and propidium iodide staining in MDA-MB231; assay type: cell-based; details: MDA-MB231, compound at its IC50, 24 h; for Necrosis (%): % of entire cell population (control 0.6); for Early apoptosis (%): % of entire cell population (control 1.4); for Late apoptosis (%): % of entire cell population (control 2.0)
# Protocol: Annexin V and propidium iodide (PI) staining: Cells were seeded at a density of 1×10^5 cells/well and treated for 24 h with various concentrations of each compound or equivalent volumes of DMSO. Briefly, after incubation with the test compounds, cells were trypsinized and stained with Annexin V-FITC (Invitrogen) and PI (0.5 μg/ml). Following incubation at room temperature for 15 min in the dark, annexin V-FITC and PI fluorescence intensities were analyzed by FACScaliber (BD Bioscience). Annexin V (+)/PI (−) cells are in early apoptosis, annexin V (+)/PI (+) cells are in late apoptosis (secondary necrosis), and annexin V (−)/ PI (+) cells are necrotic cells.
# (§1) As summarized in Table 2 below, in MDA-MB231 cells, all six compounds, each used at its IC50 concentration, a) inhibited cell proliferation between 6% and 50% compared to controls; b) induced both early and late apoptosis, as well as necrosis; and c) inhibited the G1 to S cell cycle phase transition. In this Table, the values for proliferation are the percentage of the corresponding control values. Those for apoptosis and necrosis refer to the percentage of cells in each category with respect to the entire cell population, and are to be compared to the control (vehicle only-treated) cells (uppermost row).
# [2] = system: MDA-MB 231 human breast cancer cells; test: Cell proliferation assay (BrdU incorporation) in MDA-MB231; assay type: cell-based; details: MDA-MB231, each compound at its IC50 concentration
# Source text: Cell proliferation assay: To determine cell proliferation, we measured the incorporation of 5-bromo-2′-deoxyuridine (BrdU) into newly synthesized cellular DNA, following the manufacture's instructions (BD Biosciences, San Jose, Calif.).
# as §1
# [3] = system: spermidine/spermine N^1-acetyltransferase (SSAT); test: SSAT enzymatic activity in SW480 cells; assay type: cell-based, human; details: SW480, 24 h; phospho-sulindac I 85 μM; P<0.05 versus control
# Protocol: (§2) SW480 cells were incubated without or with phospho-sulindac I (P-S) for up to 24 h and SSAT activity was determined at each time point by determining the amount of labelled N1-acetylspermidine synthesized from [^14C]acetyl-CoA and unlabeled spermidine.
# (§3) The effect of phospho-sulindac I on polyamines is mediated, at least in part, by activation of SSAT by phospho-sulindac I. It is known that conventional sulindac induces SSAT activity (Babbar et al., Cyclooxygenase-independent induction of apoptosis by sulindac sulfone is mediated by polyamines in colon cancer. J Biol Chem 2003; 278(48):47762-75.). Incubation of HT-29 and SW480 cells with 85 μM phospho-sulindac I for 24 h leads to a 3- and 4.4-fold increase of SSAT activity (P<0.05 versus control), respectively. On the other hand, incubation with sulindac led to a 1.5 and 2.5-fold increase of SSAT activity (P<0.05 versus control) in HT-29 and SW480 cells, respectively.
# [4] = system: spermidine/spermine N^1-acetyltransferase (SSAT); test: SSAT enzymatic activity in HT-29 cells; assay type: cell-based, human; details: HT-29, 24 h; phospho-sulindac I 85 μM; P<0.05 versus control
# Protocol: as §2, §3
# [5] = assay type: in vivo; details: 5 days oral gavage; phospho-sulindac I 317 mg/kg/d, sulindac 200 mg/kg/day; 8 mice/group
# Protocol: Phospho-sulindac I lacked gastrointestinal toxicity in mice; gastrointestinal toxicity is the major side effect of sulindac as well as of the entire class of NSAIDs. We evaluated in mice the potential toxicity of phospho-sulindac I. Three groups, each consisting of 8 female C57BL/6J+/+mice 6 wks of age, were treated for 5 days by oral gavage with equimolar amounts of phospho-sulindac I (317 mg/kg/d) or conventional sulindac (200 mg/kg/day) or vehicle. Mice were weighed at time 0 and on days 3 and 5. Mice surviving to the end of the study were euthanized and necropsied.
# The stomachs of sulindac-treated animals were larger than those of the other two groups and in some the liver appeared hyperemic.
# APC^Min/+ mice = details: literature (Yang et al. 2003); cited from earlier work
# [6] = Homo sapiens, MIA-PaCa-2 pancreatic cancer cells, 24 h, read-out: 24-h IC50
# [7] = Homo sapiens, HT-29, HT29 colon cancer cells, 24 h, read-out: 24-h IC50
# [8] = Homo sapiens, SW480 colon cancer cells, 24 h, read-out: 24-h IC50
# [9] = Homo sapiens, MCF7, MCF-7 breast cancer cells, 24 h, read-out: 24-h IC50
# [10] = Homo sapiens, MDA-MB-231, MDA-MB231 breast cancer cells, 24 h, read-out: 24-h IC50
# [11] = Homo sapiens, BXPC-3, 24 h, read-out: 24-h IC50
# [12] = MIA-PaCa-2 pancreatic cancer cells, 24 h, read-out: 24-h IC50
# [13] = HT29 colon cancer cells, 24 h, read-out: 24-h IC50
# [14] = SW480 colon cancer cells, 24 h, read-out: 24-h IC50
# [15] = MCF-7 breast cancer cells, 24 h, read-out: 24-h IC50
# [16] = MDA-MB231 breast cancer cells, 24 h, read-out: 24-h IC50
# [17] = read-out: 24-h IC50, BxPC-3 pancreatic cancer cells, 24 h
# [18] = Homo sapiens, BXPC-3, 24 h, read-out: IC50 (growth of human cancer cells)
# [19] = Homo sapiens, MIA PaCa-2, 24 h, read-out: 24-h IC50
# [20] = Homo sapiens, HT-29, 24 h, read-out: 24-h IC50
# [21] = Homo sapiens, SW480, 24 h, read-out: 24-h IC50
# [22] = Homo sapiens, MCF7, 24 h, read-out: 24-h IC50
# [23] = Homo sapiens, MDA-MB-231, 24 h, read-out: 24-h IC50
SMILES,IC50 (MIA-PaCa-2; [6]),IC50 (HT29; [7]),IC50 (SW480; [8]),IC50 (MCF-7; [9]),IC50 (MDA-MB231; [10]),IC50 (BxPC-3; [11]),Necrosis (%) [1],Early apoptosis (%) [1],Late apoptosis (%) [1],Proliferation (% control) [2],also measured
"CC(=O)Oc1ccccc1C(=O)O [Aspirin, acetylsalicylic acid, reference compound]",> 2000 µM,4000 µM,> 2000 µM,> 2000 µM,> 2000 µM,> 2000 µM,–,–,–,–,–
"CC(C(=O)O)c1ccc(-c2ccccc2)c(F)c1 (stereo not drawn) [Flurobiprofen, flurbiprofen, reference compound]",1270 µM,1670 µM,1220 µM,1430 µM,823 µM,825 µM,–,–,–,–,–
CCOP(=O)(OCC)OCC(COC(=O)c1ccccc1OC(C)=O)OP(=O)(OCC)OCC (stereo not drawn) [Glycero-phospho-aspirin II],–,–,–,–,–,–,0.4%,2.4%,2.2%,52 % control,IC50 (MIA-PaCa-2; [12]): 242 µM; IC50 (HT29; [13]): 40 µM; IC50 (SW480; [14]): 170 µM; IC50 (MCF-7; [15]): 248 µM; IC50 (MDA-MB231; [16]): 360 µM; IC50 (BxPC-3; [17]): 38 µM
CCOP1(=O)OCC(COC(=O)c2ccccc2OC(C)=O)O1 (stereo not drawn) [Glycero-phospho-aspirin I],–,–,–,–,–,–,0.3%,4.8%,3.2%,94 % control,IC50 (MIA-PaCa-2; [12]): 303 µM; IC50 (HT29; [13]): 54 µM; IC50 (SW480; [14]): 169 µM; IC50 (MCF-7; [15]): 32 µM; IC50 (MDA-MB231; [16]): 199 µM; IC50 (BxPC-3; [17]): 63 µM
"CC(C)Cc1ccc(C(C)C(=O)O)cc1 (stereo not drawn) [Ibuprofen, ibuprofen, reference compound]",1280 µM,1550 µM,1060 µM,1230 µM,748 µM,1060 µM,–,–,–,–,–
CCCC(CCC)C(=O)Oc1ccc(COP(=O)(OCC)OCC)cc1 [Phosoho-VPA],–,–,–,–,–,–,–,–,–,–,"IC50 (MIA-PaCa-2; Homo sapiens, MIA PaCa-2, 24 h, read-out: IC50 (growth of human cancer cells)): 89 µM; IC50 (HT29; Homo sapiens, HT-29, 24 h, read-out: IC50 (growth of human cancer cells)): 13 µM; IC50 (SW480; Homo sapiens, SW480, 24 h, read-out: IC50 (growth of human cancer cells)): 59 µM; IC50 (MCF-7; Homo sapiens, MCF7, 24 h, read-out: IC50 (growth of human cancer cells)): 51 µM; IC50 (MDA-MB231; Homo sapiens, MDA-MB-231, 24 h, read-out: IC50 (growth of human cancer cells)): 30 µM; IC50 (BxPC-3; [18]): 36 µM"
CCOP(=O)(OCC)OCCCCOC(=O)C(C)c1ccc(-c2ccccc2)c(F)c1 (stereo not drawn) [Phospho-Flurobiprofen],–,–,–,–,–,34 µM,1.7%,5.3%,20.6%,42 % control,IC50 (MIA-PaCa-2; [19]): 135 µM; IC50 (HT29; [20]): 80 µM; IC50 (SW480; [21]): 104 µM; IC50 (MCF-7; [22]): 65 µM; IC50 (MDA-MB231; [23]): 17 µM
CCOP(=O)(OCC)OCCCCOC(=O)C(C)c1ccc(CC(C)C)cc1 (stereo not drawn) [Phospho-Ibuprofen],–,–,–,–,–,53 µM,5.6%,7.4%,43.2%,50 % control,IC50 (MIA-PaCa-2; [19]): 104 µM; IC50 (HT29; [20]): 82 µM; IC50 (SW480; [21]): 75 µM; IC50 (MCF-7; [22]): 79 µM; IC50 (MDA-MB231; [23]): 28 µM
CCOP(=O)(OCC)OCCCCOC(=O)CC1=C(C)/C(=C/c2ccc(SC)cc2)c2ccc(F)cc21 [Phospho-sulindac II],–,–,–,–,–,32 µM,2.6%,5.0%,23.2%,52 % control,IC50 (MIA-PaCa-2; [19]): 92 µM; IC50 (HT29; [20]): 70 µM; IC50 (SW480; [21]): 73 µM; IC50 (MCF-7; [22]): 38 µM; IC50 (MDA-MB231; [23]): 18 µM
"CC1=C(CC(=O)O)c2cc(F)ccc2C1=Cc1ccc([S+](C)[O-])cc1 (stereo not drawn) [Sulindac, 2-[6-fluoro-2-methyl-3-[(4-methylsulfinylphenyl)methylidene]inden-1-yl]-acetic acid, reference compound]",1040 µM,1170 µM,900 µM,1130 µM,530 µM,489 µM,–,–,–,–,increase of SSAT activity [3]: 2.5 fold; increase of SSAT activity [4]: 1.5 fold; mortality [5]: 75%; effect on formation of tumors in the colon of Min mice (APC^Min/+ mice): stimulates the formation of tumors in the colon
"CCCC(CCC)C(=O)O [VPA, Valproic acid, reference compound]",–,–,–,–,–,–,–,–,–,–,"IC50 (MIA-PaCa-2; Homo sapiens, MIA PaCa-2, Table 3, MIA PaCa2, 24-h IC50, read-out: IC50 (growth of human cancer cells)): 3080 µM; IC50 (HT29; Homo sapiens, Table 3, HT-29, 24-h IC50, read-out: IC50 (growth of human cancer cells)): 3210 µM; IC50 (SW480; Homo sapiens, Table 3, SW480, 24-h IC50, read-out: IC50 (growth of human cancer cells)): 3640 µM; IC50 (MCF-7; Homo sapiens, MCF7, Table 3, MCF-7, 24-h IC50, read-out: IC50 (growth of human cancer cells)): 1780 µM; IC50 (MDA-MB231; Homo sapiens, MDA-MB-231, Table 3, MDA-MB231, 24-h IC50, read-out: IC50 (growth of human cancer cells)): 4050 µM; IC50 (BxPC-3; [18]): 1680 µM"
